Source: PubChem BioAssay (NCI)
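96-well plates; 48 h exposure; 5 concentrations. Endpoints by linear interpolation between flanking doses. Not reached: highest tested concentration assigned. The concentration for 50% growth inhibition is given as GI50. TGI marks complete inhibition of growth.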

Legend:
Test in all cases: DTP human tumour cell line panel, 48 h
786-0 renal = tested on: 786-0 renal
A498 renal = tested on: A498 renal
A549 NSCLC = tested on: A549 NSCLC
BT-549 breast = tested on: BT-549 breast
CAKI-1 renal = tested on: CAKI-1 renal
CCRF-CEM leukemia = tested on: CCRF-CEM leukemia
COLO 205 colon = tested on: COLO 205 colon
DU-145 prostate = tested on: DU-145 prostate
EKVX NSCLC = tested on: EKVX NSCLC
HCC-2998 colon = tested on: HCC-2998 colon
HCT-116 colon = tested on: HCT-116 colon
HCT-15 colon = tested on: HCT-15 colon
HL-60(TB) leukemia = tested on: HL-60(TB) leukemia
HOP-62 NSCLC = tested on: HOP-62 NSCLC
HOP-92 NSCLC = tested on: HOP-92 NSCLC
HS 578T breast = tested on: HS 578T breast
HT29 colon = tested on: HT29 colon
IGROV1 ovarian = tested on: IGROV1 ovarian
K-562 leukemia = tested on: K-562 leukemia
KM12 colon = tested on: KM12 colon
LOX IMVI melanoma = tested on: LOX IMVI melanoma
M14 melanoma = tested on: M14 melanoma
MALME-3M melanoma = tested on: MALME-3M melanoma
MCF7 breast = tested on: MCF7 breast
MDA-MB-231 breast = tested on: MDA-MB-231 breast
MDA-MB-435 = tested on: MDA-MB-435
MOLT-4 leukemia = tested on: MOLT-4 leukemia
NCI-H226 lung = tested on: NCI-H226 lung
NCI-H23 lung = tested on: NCI-H23 lung
NCI-H460 lung = tested on: NCI-H460 lung
NCI-H522 lung = tested on: NCI-H522 lung
NCI/ADR-RES ovarian = tested on: NCI/ADR-RES ovarian
OVCAR-3 ovarian = tested on: OVCAR-3 ovarian
OVCAR-5 ovarian = tested on: OVCAR-5 ovarian
OVCAR-8 ovarian = tested on: OVCAR-8 ovarian
PC-3 prostate = tested on: PC-3 prostate
RPMI-8226 leukemia = tested on: RPMI-8226 leukemia
RXF 393 renal = tested on: RXF 393 renal
SF-268 CNS = tested on: SF-268 CNS
SF-295 CNS = tested on: SF-295 CNS
SF-539 CNS = tested on: SF-539 CNS
SK-MEL-2 melanoma = tested on: SK-MEL-2 melanoma
SK-MEL-28 melanoma = tested on: SK-MEL-28 melanoma
SK-OV-3 ovarian = tested on: SK-OV-3 ovarian
SN12C renal = tested on: SN12C renal
SNB-19 CNS = tested on: SNB-19 CNS
SNB-75 CNS = tested on: SNB-75 CNS
SR leukemia = tested on: SR leukemia
SW-620 colon = tested on: SW-620 colon
T-47D breast = tested on: T-47D breast
TK-10 renal = tested on: TK-10 renal
U251 CNS = tested on: U251 CNS
UACC-257 melanoma = tested on: UACC-257 melanoma
UACC-62 melanoma = tested on: UACC-62 melanoma
UO-31 renal = tested on: UO-31 renal

Compound: COc1ccc2[nH]c(O)c(/C=c3/ccc4c(c3)N=C(c3ccc(F)cc3)N=4)c2c1
- GI50 (786-0 renal): 1690 nM
- TGI (786-0 renal): 3.26 µM
- GI50 (A498 renal): 1460 nM
- TGI (A498 renal): 4.28 µM
- GI50 (A549 NSCLC): 3.11 µM
- TGI (A549 NSCLC): > 100 µM
- GI50 (BT-549 breast): 1750 nM
- TGI (BT-549 breast): 4.75 µM
- GI50 (CAKI-1 renal): 7.12 µM
- TGI (CAKI-1 renal): > 100 µM
- GI50 (CCRF-CEM leukemia): 4.14 µM
- TGI (CCRF-CEM leukemia): > 100 µM
- GI50 (COLO 205 colon): 5.13 µM
- TGI (COLO 205 colon): > 100 µM
- GI50 (DU-145 prostate): 2230 nM
- TGI (DU-145 prostate): 6.87 µM
- GI50 (EKVX NSCLC): 14 µM
- TGI (EKVX NSCLC): > 100 µM
- GI50 (HCC-2998 colon): > 100 µM
- TGI (HCC-2998 colon): > 100 µM
- GI50 (HCT-116 colon): 1630 nM
- TGI (HCT-116 colon): 3.37 µM
- GI50 (HCT-15 colon): 5.83 µM
- TGI (HCT-15 colon): > 100 µM
- GI50 (HL-60(TB) leukemia): 28.3 µM
- TGI (HL-60(TB) leukemia): > 100 µM
- GI50 (HOP-62 NSCLC): 1930 nM
- TGI (HOP-62 NSCLC): 3.91 µM
- GI50 (HOP-92 NSCLC): 2060 nM
- TGI (HOP-92 NSCLC): 8.75 µM
- GI50 (HS 578T breast): 2730 nM
- TGI (HS 578T breast): 9.4 µM
- GI50 (HT29 colon): 3.62 µM
- TGI (HT29 colon): 16.8 µM
- GI50 (IGROV1 ovarian): 3.27 µM
- TGI (IGROV1 ovarian): 17.9 µM
- GI50 (K-562 leukemia): 9.14 µM
- TGI (K-562 leukemia): > 100 µM
- GI50 (KM12 colon): 4.54 µM
- TGI (KM12 colon): 77.9 µM
- GI50 (LOX IMVI melanoma): 2920 nM
- TGI (LOX IMVI melanoma): > 100 µM
- GI50 (M14 melanoma): 2660 nM
- TGI (M14 melanoma): 11.1 µM
- GI50 (MALME-3M melanoma): 2580 nM
- TGI (MALME-3M melanoma): 6.32 µM
- GI50 (MCF7 breast): 4.53 µM
- TGI (MCF7 breast): 93.3 µM
- GI50 (MDA-MB-231 breast): 2250 nM
- TGI (MDA-MB-231 breast): 6.04 µM
- GI50 (MDA-MB-435): 3.2 µM
- TGI (MDA-MB-435): 40 µM
- GI50 (MOLT-4 leukemia): 13.9 µM
- TGI (MOLT-4 leukemia): > 100 µM
- GI50 (NCI-H226 lung): 2500 nM
- TGI (NCI-H226 lung): 6.33 µM
- GI50 (NCI-H23 lung): 3.14 µM
- TGI (NCI-H23 lung): 28.1 µM
- GI50 (NCI-H460 lung): 3.35 µM
- TGI (NCI-H460 lung): 12.3 µM
- GI50 (NCI-H522 lung): 2790 nM
- TGI (NCI-H522 lung): 8.09 µM
- GI50 (NCI/ADR-RES ovarian): 3.78 µM
- TGI (NCI/ADR-RES ovarian): 24.4 µM
- GI50 (OVCAR-3 ovarian): 3.25 µM
- TGI (OVCAR-3 ovarian): 11.4 µM
- GI50 (OVCAR-5 ovarian): 7.1 µM
- TGI (OVCAR-5 ovarian): 97.9 µM
- GI50 (OVCAR-8 ovarian): 2070 nM
- TGI (OVCAR-8 ovarian): 5.32 µM
- GI50 (PC-3 prostate): 4.64 µM
- TGI (PC-3 prostate): 88.6 µM
- GI50 (RPMI-8226 leukemia): 3.01 µM
- TGI (RPMI-8226 leukemia): > 100 µM
- GI50 (RXF 393 renal): 1950 nM
- TGI (RXF 393 renal): 4.06 µM
- GI50 (SF-268 CNS): 3.76 µM
- TGI (SF-268 CNS): 22.7 µM
- GI50 (SF-295 CNS): 7.33 µM
- TGI (SF-295 CNS): > 100 µM
- GI50 (SF-539 CNS): 3.83 µM
- TGI (SF-539 CNS): 23.7 µM
- GI50 (SK-MEL-2 melanoma): 5.72 µM
- TGI (SK-MEL-2 melanoma): 44.8 µM
- GI50 (SK-MEL-28 melanoma): 4.34 µM
- TGI (SK-MEL-28 melanoma): 28.8 µM
- GI50 (SK-OV-3 ovarian): 2620 nM
- TGI (SK-OV-3 ovarian): 6.06 µM
- GI50 (SN12C renal): 4.88 µM
- TGI (SN12C renal): > 100 µM
- GI50 (SNB-19 CNS): 9.47 µM
- TGI (SNB-19 CNS): > 100 µM
- GI50 (SNB-75 CNS): 1550 nM
- TGI (SNB-75 CNS): 3.6 µM
- GI50 (SR leukemia): 4.95 µM
- TGI (SR leukemia): > 100 µM
- GI50 (SW-620 colon): 4.34 µM
- TGI (SW-620 colon): > 100 µM
- GI50 (T-47D breast): 2010 nM
- TGI (T-47D breast): 4.99 µM
- GI50 (TK-10 renal): 3.01 µM
- TGI (TK-10 renal): 7.12 µM
- GI50 (U251 CNS): 3.65 µM
- TGI (U251 CNS): 30.8 µM
- GI50 (UACC-257 melanoma): 3.92 µM
- TGI (UACC-257 melanoma): 15.3 µM
- GI50 (UACC-62 melanoma): 6.11 µM
- TGI (UACC-62 melanoma): > 100 µM
- GI50 (UO-31 renal): 1950 nM
- TGI (UO-31 renal): 5.01 µM
